Some test systems named below: SN12C renal; U251 CNS; LOX IMVI melanoma; OVCAR-5 ovarian; OVCAR-8 ovarian; OVCAR-3 ovarian; UO-31 renal; HL-60(TB) leukemia; HCC-2998 colon.
What all share (test): inhibition of tumour cell growth, NCI panel, 48 h

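1) Cells in 96-well plates. 2) Compound, 48 h, 5 concentrations. 3) Linear interpolation between surrounding doses. 4) Unreached endpoint = highest concentration. Abbreviation: GI50, concentration required for 50% inhibition of growth. TGI: concentration producing complete growth inhibition.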 Where a SMILES comes first, the peptide text is derived from it. Bridges are numbered along the chain shown (N, C = ends). Roman numbers before positions name the chains, in order. [ ]: non-standard residue; d: D form. The star is where a group is joined. Quinoxaline2carbonyl = O=C(c1cnc2ccccc2n1)*; NMeV = CN[CH](C(=O)O)C(C)C; NMeC = CN[CH](CS)C(=O)O A value given as a limit tells only on which side of the number the result lay.

As for `CCCCCCCCCCCCCP(=O)(O)NCC(N)=O`, the TGI in the experiment with SN12C renal, in the experiment with U251 CNS, with LOX IMVI melanoma, in the experiment with OVCAR-5 ovarian, in the experiment on OVCAR-8 ovarian and in the experiment on OVCAR-3 ovarian was > 100 µM each time. The values for the TGI in the experiment with UO-31 renal, in the experiment on HL-60(TB) leukemia and with HCC-2998 colon were 90.4 µM, 67.3 µM and > 100 µM, respectively.
As for `C=C1CCC2[C@@H](CCC3[C@]2(C)CCC[C@]3(C)C(=O)OC)[C@@H]1CC=O` (some centres not stated), the TGI in the experiment on SN12C renal is > 100 µM; in the experiment with U251 CNS, > 100 µM; in the experiment with OVCAR-5 ovarian it was > 100 µM; in the experiment on OVCAR-8 ovarian, 49.2 µM; with OVCAR-3 ovarian it was 41.9 µM; with UO-31 renal, > 100 µM. In addition, the TGI is 55.9 µM in the experiment on HL-60(TB) leukemia and > 100 µM in the experiment on HCC-2998 colon. In addition, the figures for the GI50 in the experiment with U251 CNS, in the experiment with OVCAR-5 ovarian and in the experiment on UO-31 renal were 46 µM, 50.8 µM and 31.3 µM, respectively.
`COc1ccc(C(Cl)=C(c2ccc(OCCN(C)C)cc2)c2ccc(OCCN(C)C)cc2)cc1`: the TGI is 11.7 µM in the experiment with SN12C renal; 3.25 µM with U251 CNS; 3.3 µM with OVCAR-5 ovarian; 4.06 µM in the experiment with OVCAR-8 ovarian; 5.02 µM with OVCAR-3 ovarian; 3.31 µM in the experiment on UO-31 renal. Further, the results for the TGI with HL-60(TB) leukemia and in the experiment on HCC-2998 colon were 3.65 µM and 7.35 µM, respectively.
As for `O=C(NC1CCCC1=O)c1ccccc1` (configuration not stated), the TGI in the experiment with SN12C renal, with U251 CNS, in the experiment with OVCAR-5 ovarian, with OVCAR-8 ovarian, in the experiment on OVCAR-3 ovarian and in the experiment on UO-31 renal was > 100 µM in each case. Moreover, the TGI in the experiment on HL-60(TB) leukemia was > 100 µM.
Regarding `Cc1cc(N(CCC#N)CCC#N)ccc1/C=C1/N=C(c2ccccc2)N(N)C1=O`, the TGI with SN12C renal, in the experiment on U251 CNS, with LOX IMVI melanoma, with OVCAR-5 ovarian, in the experiment on OVCAR-8 ovarian and in the experiment with OVCAR-3 ovarian was > 100 µM each time. Besides, the TGI with UO-31 renal, with HL-60(TB) leukemia and with HCC-2998 colon was > 100 µM in each case.
Regarding `N#Cc1ccc(N=Cc2c([O-])ccc3ccccc23)cc1.[C-]#[O+].[C-]#[O+].[Ir]`, the GI50 was 13.2 µM in the experiment with SN12C renal; 13 µM in the experiment with U251 CNS; 9.88 µM with LOX IMVI melanoma; 21.7 µM in the experiment with OVCAR-5 ovarian; 6.03 µM in the experiment with OVCAR-8 ovarian; 4.02 µM in the experiment with OVCAR-3 ovarian. Moreover, the GI50 was 13.2 µM with UO-31 renal, 1.5 µM in the experiment with HL-60(TB) leukemia and 14.7 µM in the experiment with HCC-2998 colon. Besides, the TGI worked out at 27.5 µM in the experiment with SN12C renal; 25.7 µM with U251 CNS; 22.4 µM in the experiment on LOX IMVI melanoma; 36.5 µM in the experiment on OVCAR-5 ovarian; 28 µM with OVCAR-8 ovarian; 15.1 µM in the experiment with OVCAR-3 ovarian. In addition, the values for the TGI with UO-31 renal, in the experiment on HL-60(TB) leukemia and with HCC-2998 colon were 26.1 µM, 5.18 µM and 27.8 µM, respectively.
For the compound `COc1cc2nc(NCCCCCNC(=O)c3ccco3)nc(N)c2cc1OC`, the TGI in the experiment with SN12C renal was > 100 µM; with U251 CNS it was 42.5 µM; in the experiment with OVCAR-5 ovarian, > 100 µM; in the experiment on OVCAR-8 ovarian it was > 100 µM; in the experiment with OVCAR-3 ovarian it was 62.5 µM; in the experiment on UO-31 renal, > 100 µM. Besides, the TGI amounted to 43.3 µM in the experiment on HL-60(TB) leukemia and 38.2 µM in the experiment on HCC-2998 colon.
In the case of `CN1COc2c(n(C)c(=O)[nH]c2=O)C1`, the TGI in the experiment with SN12C renal, in the experiment with U251 CNS, with OVCAR-5 ovarian, in the experiment with OVCAR-8 ovarian, with OVCAR-3 ovarian and with UO-31 renal was > 100 µM each time. Besides, the TGI with HL-60(TB) leukemia was > 80.3 µM; with HCC-2998 colon, > 100 µM.
For `CN(C)CCC(/C=C/c1ccccc1)=N\Nc1ccc(Cl)cc1Cl`, the TGI turned out to be 23.2 µM with SN12C renal; 24.7 µM in the experiment on U251 CNS; 28.8 µM in the experiment with OVCAR-5 ovarian; 30.3 µM in the experiment on OVCAR-8 ovarian; 27.5 µM in the experiment on OVCAR-3 ovarian; 6.5 µM in the experiment on UO-31 renal. In the experiment with HL-60(TB) leukemia, this compound showed a TGI of 16.7 µM.
On to `COC(CN1C=C(Sc2ccccc2)CC1)OC`, for which the TGI with SN12C renal was > 100 µM; in the experiment on LOX IMVI melanoma, 56.3 µM; with OVCAR-5 ovarian, > 100 µM; in the experiment with OVCAR-8 ovarian it was 86.9 µM; in the experiment with OVCAR-3 ovarian, 63.6 µM; with UO-31 renal it was > 100 µM. Besides, the TGI in the experiment on HL-60(TB) leukemia was 34 µM; in the experiment with HCC-2998 colon it was > 100 µM.
With `COC(=O)C(C)(C)N=CN(C)C`, the TGI in the experiment with SN12C renal, in the experiment with U251 CNS, in the experiment on LOX IMVI melanoma, in the experiment with OVCAR-5 ovarian, in the experiment on OVCAR-8 ovarian and in the experiment with OVCAR-3 ovarian was > 100 µM throughout. In addition, the TGI with UO-31 renal, in the experiment on HL-60(TB) leukemia and in the experiment with HCC-2998 colon was > 100 µM each time.
As to `CC1NC(=O)C(NC(=O)c2cnc3ccccc3n2)COC(=O)C(C(C)C)N(C)C(=O)C2CSSCC(C(=O)N(C)C(C(C)C)C(=O)OCC(NC(=O)c3cnc4ccccc4n3)C(=O)NC(C)C(=O)N2C)N(C)C1=O` (configuration not stated) (I: Quinoxaline2carbonyl-SA[NMeC][NMeV] / II: Quinoxaline2carbonyl-SA[NMeC][NMeV]; ester I:1-II:C, I:C-II:1; disulfide I:3-II:3; configuration not given here), the TGI in the experiment on U251 CNS was > 31.8 µM; in the experiment on LOX IMVI melanoma it was 10.2 µM; in the experiment with OVCAR-5 ovarian, > 4.64 µM; in the experiment on OVCAR-8 ovarian it was < 0.215 µM; in the experiment with OVCAR-3 ovarian, > 100 µM; in the experiment on HL-60(TB) leukemia, < 0.01 µM. Further, the TGI in the experiment on HCC-2998 colon is < 0.01 µM.
For the compound `c1ccc(P(=Nc2ccccc2N=P(c2ccccc2)(c2ccccc2)c2ccccc2)(c2ccccc2)c2ccccc2)cc1`, the TGI is 10.9 µM in the experiment with SN12C renal; 11.6 µM in the experiment with U251 CNS; 13.9 µM in the experiment on LOX IMVI melanoma; 7.53 µM in the experiment on OVCAR-5 ovarian; 12.2 µM with OVCAR-8 ovarian; 0.783 µM with OVCAR-3 ovarian. Moreover, the TGI in the experiment on UO-31 renal was 6.35 µM; with HL-60(TB) leukemia it was 3.43 µM; in the experiment with HCC-2998 colon, 12.8 µM.
As for `CC1(C)C2CCC13CS(=O)(=O)N1O[C@]13C(=O)O2` (some centres not stated), the TGI with SN12C renal, in the experiment with U251 CNS, with LOX IMVI melanoma, in the experiment on OVCAR-5 ovarian, with OVCAR-8 ovarian and with OVCAR-3 ovarian was > 100 µM each time. Also, the TGI in the experiment on UO-31 renal, in the experiment on HL-60(TB) leukemia and with HCC-2998 colon was > 100 µM each time.

These data come from PubChem BioAssay (NCI).
